Data published in the supplement of paper PMC10307832.

Key:
Assay in all cases: relative viability (nuclei count vs DMSO), 5 days (fraction); higher = more cells survive
[1] = compound: C1CN(CCN1)C2=CC=C(C=C2)C3=CN4C(=C(C=N4)C5=CC=NC6=CC=CC=C56)N=C3 [DM3189] + CS(=O)(=O)N1CCN(Cc2cc3nc(-c4cccc5[nH]ncc45)nc(N4CCOCC4)c3s2)CC1 [Pictilisib] (partner 1 µM)
How it was run: (§1)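 Lung cancer cell lines were pin-tool dosed in 1536-well plates on the day after seeding, with either a lone drug or a fixed anchor-drug dose plus five library-drug doses (not always all listed) in √10 steps. Nuclei were counted on 4× images after 5 days. Relative viability is the ratio of treated-well to vehicle-well nuclei counts, with each value a median of duplicate plates.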

[2] = compound: C1CN(CCN1)C2=CC=C(C=C2)C3=CN4C(=C(C=N4)C5=CC=NC6=CC=CC=C56)N=C3 [DM3189] + C[C@]1(O)C[C@@H](c2nc(-c3ccc4ccc(-c5ccccc5)nc4c3)c3c(N)nccn32)C1 [Linsitinib] (partner 1 µM)
How it was run: as §1

[3] = compound: C1CN(CCN1)C2=CC=C(C=C2)C3=CN4C(=C(C=N4)C5=CC=NC6=CC=CC=C56)N=C3 [DM3189] + C[C@@H](Oc1cc(-c2cnn(C3CCNCC3)c2)cnc1N)c1c(Cl)ccc(F)c1Cl [Crizotinib] (partner 1 µM)
How it was run: as §1

[4] = compound: C1CN(CCN1)C2=CC=C(C=C2)C3=CN4C(=C(C=N4)C5=CC=NC6=CC=CC=C56)N=C3 [DM3189] + Cc1nc(NC(=O)N2CCC[C@H]2C(N)=O)sc1-c1ccnc(C(C)(C)C(F)(F)F)c1 [Alpelisib] (partner 2 µM)
How it was run: as §1

[5] = compound: C1CN(CCN1)C2=CC=C(C=C2)C3=CN4C(=C(C=N4)C5=CC=NC6=CC=CC=C56)N=C3 [DM3189] + CC(C)C[C@H](NC(=O)[C@H](Cc1ccccc1)NC(=O)c1cnccn1)B(O)O [Bortezomib] (partner 0.002 µM)
How it was run: as §1

Row | Cell Line | relative viability ([1]; first compound 0.08 µM) | relative viability ([1]; first compound 0.253 µM) | relative viability ([1]; first compound 0.8 µM) | relative viability ([1]; first compound 2.53 µM) | relative viability ([2]; first compound 0.08 µM) | relative viability ([2]; first compound 0.253 µM) | relative viability ([2]; first compound 0.8 µM) | relative viability ([2]; first compound 2.53 µM) | relative viability ([3]; first compound 0.08 µM) | relative viability ([3]; first compound 0.253 µM) | relative viability ([3]; first compound 0.8 µM) | relative viability ([3]; first compound 2.53 µM) | relative viability ([4]; first compound 0.08 µM) | relative viability ([4]; first compound 0.253 µM) | relative viability ([4]; first compound 0.8 µM) | relative viability ([4]; first compound 2.53 µM) | relative viability ([5]; first compound 0.08 µM) | relative viability ([5]; first compound 0.253 µM) | relative viability ([5]; first compound 0.8 µM) | relative viability ([5]; first compound 2.53 µM)
1 | NCI-H2405 | 0.467 | 0.378 | 0.422 | 0.408 | 0.909 | 0.922 | 0.792 | 0.878 | 0.867 | 0.855 | 0.775 | 0.855 | 0.527 | 0.709 | 0.58 | 0.677 | 0.986 | 0.946 | 0.966 | 0.96
2 | NCI-H3122 | 0.568 | 0.466 | 0.601 | 0.502 | 0.939 | 0.907 | 0.876 | 0.933 | 0.237 | 0.204 | 0.261 | 0.259 | 0.656 | 0.74 | 0.701 | 0.739 | 0.979 | 0.983 | 0.973 | 0.982
3 | PC-3 [JPC-3] | 0.871 | 0.71 | 0.669 | 0.75 | 0.975 | 0.91 | 0.972 | 1.06 | 1.05 | 1.04 | 1.04 | 1.12 | 1.08 | 1.08 | 1.02 | 1.23 | 1 | 0.869 | 0.849 | 0.785
4 | PC-14 | 0.782 | 0.739 | 0.673 | 0.538 | 1.03 | 0.953 | 0.903 | 0.879 | 0.807 | 0.914 | 0.791 | 0.862 | 0.983 | 0.996 | 0.768 | 1.1 | 0.832 | 0.885 | 0.832 | 0.812
5 | RERF-LC-KJ | 0.585 | 0.694 | 0.602 | 0.562 | 0.932 | 0.879 | 0.861 | 0.978 | 0.887 | 0.812 | 0.863 | 0.885 | 0.932 | 0.829 | 0.895 | 0.937 | 1.61 | 1.21 | 1.15 | 1.26
6 | SK-LU-1 | 0.531 | 0.4 | 0.393 | 0.393 | 0.888 | 0.688 | 0.667 | 0.524 | 0.714 | 0.868 | 0.676 | 0.522 | 0.932 | 0.677 | 0.638 | 0.377 | 1.24 | 0.882 | 0.738 | 0.7
7 | SW 1573 | 0.541 | 0.491 | 0.466 | 0.399 | 0.887 | 0.771 | 0.626 | 0.738 | 0.87 | 0.801 | 0.717 | 0.767 | 0.869 | 0.59 | 0.711 | 0.774 | 1.16 | 0.869 | 1 | 0.82
8 | UMC-11 | 0.836 | 0.795 | 0.764 | 0.702 | 1.09 | 0.986 | 1.03 | 0.959 | 0.499 | 0.477 | 0.538 | 0.414 | 0.994 | 0.998 | 0.794 | 0.749 | 0.863 | 0.635 | 0.769 | 0.397
